# Data: patent US12054466B2, “Compounds for the treatment of clostridium difficile infection” (University of Notre Dame du Lac, priority 2016, dated 2024)
# Where two headings read alike, the source gives them in different places.
# Columns and labels:
# Type in all cases: cell-based
# C. difficile ATCC43255 = assay: MIC, broth microdilution; settings: Clostridioides difficile, C. difficile ATCC43255
# C. difficile NR49310 = assay: MIC, broth microdilution; settings: Clostridioides difficile, C. difficile NR49310 (NAP7, ribotype 078)
# C. difficile BAA-1801 = assay: MIC, broth microdilution; settings: Clostridioides difficile, BAA1801, C. difficile BAA-1801 (nontoxigenic)
# C. difficile BAA-1803 = assay: MIC, broth microdilution; settings: Clostridioides difficile, BAA1803, C. difficile BAA-1803 (NAP1, ribotype 027)
# Eubacterium sp. HM-178 = assay: MIC against common gut bacteria; settings: SP.HM178
# Veillonella sp. HM-49 = assay: MIC against common gut bacteria; settings: for MIC: SP.HM49, Veillonella sp. HM-49, read-out: MIC
# [1] = system: Bacteroides fragilis HM-709; assay: MIC against common gut bacteria; settings: HM709; Bacteroides fragilis HM-709; read-out: MIC
# [2] = system: Lactobacillus reuteri HM-102; assay: MIC against common gut bacteria; settings: for MIC: Limosilactobacillus reuteri, HM102, Lactobacillus reuteri HM-102, read-out: MIC
# C. difficile BAA-1804 = assay: MIC, broth microdilution; settings: Clostridioides difficile, BAA1804, C. difficile BAA-1804
# [3] = system: Fusobacterium nucleatum HM-992; assay: MIC against common gut bacteria; settings: HM992; Fusobacterium nucleatum HM-992; read-out: MIC
# [4] = system: Corynebacterium sp. HM-784; assay: MIC against common gut bacteria; settings: SP.HM784; Corynebacterium sp. HM-784; incubated aerobically; read-out: MIC
# Method: Minimally-inhibitory concentrations. MICs for C. difficile strains and the common gut bacteria were determined using broth microdilution techniques as reported earlier using brucella broth supplemented with hemin and vitamin K or supplemented BHIS broth (Babakhani et al., J Antimicrob Chemother 2013, 68(3), 515). Lactobacillus MRS broth was used for lactobacillus strains. […] All incubations unless specified otherwise were carried out at 24 or 48 h at 37° C. in an anaerobic chamber (Whitley DG250 workstation, Microbiology International, Frederick, MD). Corynebacterium and lactobacillus species were incubated aerobically.
# Bacteroides ovatus = assay: MIC against common gut bacteria; settings: read-out: MIC
# [5] = system: Lactobacillus gasseri HM-644; assay: MIC against common gut bacteria; settings: for MIC: HM644, Lactobacillus gasseri HM-644, read-out: MIC
# Bacteroides fragilis = assay: MIC against common gut bacteria; settings: read-out: MIC
# C. difficile NR49302 = assay: MIC, broth microdilution; settings: Clostridioides difficile, C. difficile NR49302 (NAP4, ribotype 020)
# C. difficile NR49318 = assay: MIC, broth microdilution; settings: Clostridioides difficile, C. difficile NR49318 (NAP11, ribotype 106)
# C. difficile BAA-1812 = assay: MIC, broth microdilution; settings: Clostridioides difficile, BAA1812, C. difficile BAA-1812
# C. difficile NR49305 = assay: MIC, broth microdilution; settings: Clostridioides difficile, C. difficile NR49305 (NAP6, ribotype 002)
# Bacteroides caccae = assay: MIC against common gut bacteria; settings: read-out: MIC
# C. difficile NR49292 = assay: MIC, broth microdilution; settings: Clostridioides difficile, C. difficile NR49292 (NAP2, ribotype 001_072)
# C. difficile NR49294 = assay: MIC, broth microdilution; settings: Clostridioides difficile, C. difficile NR49294 (NAP4, ribotype 014)
# C. difficile BAA-1870 = assay: MIC, broth microdilution; settings: Clostridioides difficile, BAA1870, C. difficile BAA-1870 (NAP1, ribotype 27)
# Bacteroides eggerthii = assay: MIC against common gut bacteria; settings: read-out: MIC
# [6] = system: Bifidobacterium longum HM-846; assay: MIC against common gut bacteria; settings: HM846; Bifidobacterium longum HM-846; read-out: MIC
# Bacteroides vulgatus = assay: MIC against common gut bacteria; settings: Phocaeicola vulgatus; Bacteroides vulgatus; read-out: MIC
# C. difficile ATCC43598 = assay: MIC, broth microdilution; settings: Clostridioides difficile, C. difficile ATCC43598
# C. difficile BAA-1814 = assay: MIC, broth microdilution; settings: Clostridioides difficile, BAA1814, C. difficile BAA-1814
smiles,measurement,setting,value
CCc1c(Cl)c(O)c(Cl)c(O)c1C(=O)O[C@H]1[C@H](O)[C@H](OC)[C@H](OC/C2=C\C=C\C[C@H](O)/C(C)=C/[C@H](CC)[C@@H](O[C@@H]3OC(C)(C)[C@@H](OC(=O)C(C)C)[C@H](O)[C@@H]3O)/C(C)=C/C(C)=C/C[C@@H]([C@@H](C)O)OC2=O)O[C@@H]1C [fidaxomicin],MIC,"C. difficile ATCC43255; 24 h, read-out: MIC at 24 h",0.01 µg/mL
same,MIC,"C. difficile ATCC43255; 48 h, read-out: MIC at 48 h",0.01 µg/mL
same,MIC,"C. difficile NR49310; 24 h, read-out: MIC at 24 h",≤ 0.01 µg/mL
same,MIC,"C. difficile NR49310; 48 h, read-out: MIC at 48 h",≤ 0.01 µg/mL
same,MIC,"C. difficile BAA-1801; 24 h, read-out: MIC at 24 h",0.03 µg/mL
same,MIC,"C. difficile BAA-1801; 48 h, read-out: MIC at 48 h",0.125 µg/mL
same,MIC,"C. difficile BAA-1803; 24 h, read-out: MIC at 24 h",0.5 µg/mL
same,MIC,"C. difficile BAA-1803; 48 h, read-out: MIC at 48 h",1 µg/mL
same,MIC,Eubacterium sp. HM-178,16 µg/mL
same,MIC,Veillonella sp. HM-49,8 µg/mL
same,MIC,[1],> 32 µg/mL
same,MIC,[2],> 32 µg/mL
same,MIC,"C. difficile BAA-1804; 24 h, read-out: MIC at 24 h",< 0.25 µg/mL
same,MIC,"C. difficile BAA-1804; 48 h, read-out: MIC at 48 h",< 0.25 µg/mL
same,MIC,[3],< 0.06 µg/mL
same,MIC,[4],< 0.06 µg/mL
same,MIC,Bacteroides ovatus,> 32 µg/mL
same,MIC,[5],2 µg/mL
same,MIC,Bacteroides fragilis,> 32 µg/mL
same,MIC,"C. difficile NR49302; 24 h, read-out: MIC at 24 h",0.03 µg/mL
same,MIC,"C. difficile NR49302; 48 h, read-out: MIC at 48 h",0.03 µg/mL
same,MIC,"C. difficile NR49318; 24 h, read-out: MIC at 24 h",0.25 µg/mL
same,MIC,"C. difficile NR49318; 48 h, read-out: MIC at 48 h",0.125 µg/mL
same,MIC,"C. difficile BAA-1812; 24 h, read-out: MIC at 24 h",0.015 µg/mL
same,MIC,"C. difficile BAA-1812; 48 h, read-out: MIC at 48 h",0.125 µg/mL
same,MIC,"C. difficile NR49305; 24 h, read-out: MIC at 24 h",0.01 µg/mL
same,MIC,"C. difficile NR49305; 48 h, read-out: MIC at 48 h",0.01 µg/mL
same,MIC,Bacteroides caccae,> 32 µg/mL
same,MIC,"C. difficile NR49292; 24 h, read-out: MIC at 24 h",0.25 µg/mL
same,MIC,"C. difficile NR49292; 48 h, read-out: MIC at 48 h",0.5 µg/mL
same,MIC,"C. difficile NR49294; 24 h, read-out: MIC at 24 h",≤ 0.01 µg/mL
same,MIC,"C. difficile NR49294; 48 h, read-out: MIC at 48 h",0.01 µg/mL
same,MIC,"C. difficile BAA-1870; 24 h, read-out: MIC at 24 h",< 0.25 µg/mL
same,MIC,"C. difficile BAA-1870; 48 h, read-out: MIC at 48 h",0.25 µg/mL
same,MIC,Bacteroides eggerthii,> 32 µg/mL
same,MIC,[6],< 0.01 µg/mL
same,MIC,Bacteroides vulgatus,> 32 µg/mL
same,MIC,"C. difficile ATCC43598; 24 h, read-out: MIC at 24 h",0.01 µg/mL
same,MIC,"C. difficile ATCC43598; 48 h, read-out: MIC at 48 h",0.01 µg/mL
same,MIC,"C. difficile BAA-1814; 24 h, read-out: MIC at 24 h",≤ 0.01 µg/mL
same,MIC,"C. difficile BAA-1814; 48 h, read-out: MIC at 48 h",0.03 µg/mL
FC(F)(F)c1ccc(Oc2ccc(-c3noc(-c4ccc5[nH]ccc5c4)n3)cc2)cc1 [Compound 1],MIC,"C. difficile ATCC43255; 24 h, read-out: MIC at 24 h",2 µg/mL
same,MIC,"C. difficile ATCC43255; 48 h, read-out: MIC at 48 h",2 µg/mL
same,MIC,"C. difficile NR49310; 24 h, read-out: MIC at 24 h",2 µg/mL
same,MIC,"C. difficile NR49310; 48 h, read-out: MIC at 48 h",2 µg/mL
same,MIC,"C. difficile BAA-1801; 24 h, read-out: MIC at 24 h",2 µg/mL
same,MIC,"C. difficile BAA-1801; 48 h, read-out: MIC at 48 h",4 µg/mL
same,MIC,"C. difficile BAA-1803; 24 h, read-out: MIC at 24 h",1 µg/mL
same,MIC,"C. difficile BAA-1803; 48 h, read-out: MIC at 48 h",2 µg/mL
same,MIC,Eubacterium sp. HM-178,2 µg/mL
same,MIC,Veillonella sp. HM-49,> 12 µg/mL
same,Activity against Veillonella sp.,Veillonella sp. HM-49; in words,not active
same,MIC,[1],2 µg/mL
same,MIC,[2],> 12 µg/mL
same,Activity against Lactobacillus reuteri,[2]; in words,not active
same,MIC,"C. difficile BAA-1804; 24 h, read-out: MIC at 24 h",2 µg/mL
same,MIC,"C. difficile BAA-1804; 48 h, read-out: MIC at 48 h",2 µg/mL
same,MIC,[3],1 µg/mL
same,MIC,[4],2 µg/mL
same,MIC,Bacteroides ovatus,4 µg/mL
same,MIC,[5],> 12 µg/mL
same,Activity against Lactobacillus gasseri,[5]; in words,not active
same,MIC,Bacteroides fragilis,4 µg/mL
same,MIC,"C. difficile NR49302; 24 h, read-out: MIC at 24 h",1 µg/mL
same,MIC,"C. difficile NR49302; 48 h, read-out: MIC at 48 h",2 µg/mL
same,MIC,"C. difficile NR49318; 24 h, read-out: MIC at 24 h",2 µg/mL
same,MIC,"C. difficile NR49318; 48 h, read-out: MIC at 48 h",2 µg/mL
same,MIC,"C. difficile BAA-1812; 24 h, read-out: MIC at 24 h",2 µg/mL
same,MIC,"C. difficile BAA-1812; 48 h, read-out: MIC at 48 h",2 µg/mL
same,MIC,"C. difficile NR49305; 24 h, read-out: MIC at 24 h",2 µg/mL
same,MIC,"C. difficile NR49305; 48 h, read-out: MIC at 48 h",4 µg/mL
same,MIC,Bacteroides caccae,4 µg/mL
same,MIC,"C. difficile NR49292; 24 h, read-out: MIC at 24 h",1 µg/mL
same,MIC,"C. difficile NR49292; 48 h, read-out: MIC at 48 h",2 µg/mL
same,MIC,"C. difficile NR49294; 24 h, read-out: MIC at 24 h",1 µg/mL
same,MIC,"C. difficile NR49294; 48 h, read-out: MIC at 48 h",1 µg/mL
same,MIC,"C. difficile BAA-1870; 24 h, read-out: MIC at 24 h",2 µg/mL
same,MIC,"C. difficile BAA-1870; 48 h, read-out: MIC at 48 h",4 µg/mL
same,MIC,Bacteroides eggerthii,2 µg/mL
same,MIC,[6],0.2 µg/mL
same,MIC,Bacteroides vulgatus,2 µg/mL
same,MIC,"C. difficile ATCC43598; 24 h, read-out: MIC at 24 h",1 µg/mL
same,MIC,"C. difficile ATCC43598; 48 h, read-out: MIC at 48 h",1 µg/mL
same,MIC,"C. difficile BAA-1814; 24 h, read-out: MIC at 24 h",2 µg/mL
same,MIC,"C. difficile BAA-1814; 48 h, read-out: MIC at 48 h",4 µg/mL
